In patent publication US20110152275A1, “AGENT FOR MAINTENANCE OF INDUCED REMISSION” (priority 2008, published 2011):

Test system: rat adjuvant-induced arthritis model
Experiment: Rat adjuvant-induced arthritis model
Assay type: in vivo
Conditions: for infiltration of inflammatory cells into the joint after switching from MTX: MTX 0th to 10th day then Compound 1 1 mg/kg to 24th day; for overall effect on the arthritis (summary): summary of leg volume results, injected and non-injected legs
Procedure: There were intracutaneously injected 0.05 mL (0.6 mg/animal) each of a suspension of killed M. butyricum (12 mg/mL) in liquid paraffin into the back of the right hind legs of 8-week-old female rats of LEW/CrlCrlj line (available from Japan Charles-River Co., Ltd.) to thus induce the arthritis (the 0th day). Then 0.5 mL (per body weight of 100 g) each of an agent solution prepared using a 0.5% methyl cellulose (0.5% MC) was orally administered to each of the test animals. To the adjuvant-injected control animal group, there was administered only the 0.5% MC. Methotrexate (MTX, available from Sigma Company) (0.1 mg/kg) was administered to each test animal, once a day, during the term extending from the 0th day to the 10th day, every day. On or after the 11th day, (R)-2-amino-5-[2-chloro-4-(3-trifluoro methylphenylthio)phenyl]-2-methyl-1-pentanol hydrochloride (hereunder simply referred to as “Compound 1”) (1 mg/kg) was administered to the test animals, instead of methotrexate, once a day up to the 24th day every day. The evaluation of the arthritis was carried out according to the following procedures: The volumes of the right and left hind legs of each test animal were determined on the 0th, 8th, 11th, 14th, 18th, 21st and 25th days of the testing period using a volume-determining meter (MK-550 available from Muromachi Machine, Co., Ltd.) and then the rate of increase in the volume of the hind leg was determined for each of the right and left hind legs of each individual test animal. Then there was prepared a pathological specimen (stained with hematoxylin eosin) of a joint extending from the distal end of the shinbone to the tarsalia to evaluate the degree of the infiltration of inflammatory cells into the joint.
In case of the adjuvant-induced arthritis, acute inflammation, whose far advanced stage is observed on around 3rd day, is recognized on the adjuvant-injected leg and thereafter it is once degenerated. Then the systemic inflammation due to the systemic immunological abnormality is initiated on about 10th day and as a result, the onset of arthritis is observed on the non-injected leg in parallel with the injected leg.

[1] = adjuvant-injected leg, MTX 0.1 mg/kg orally once a day, 0th to 10th day, observed 8th to 11th day, FIG. 1

C[C@](N)(CO)CCCc1ccc(Sc2cccc(C(F)(F)F)c2)cc1Cl.Cl [Compound 1, (R)-2-amino-5-[2-chloro-4-(3-trifluoromethylphenylthio)phenyl]-2-methyl-1-pentanol hydrochloride]
progress of the arthritis after switching from MTX (adjuvant-injected leg, MTX 0.1 mg/kg 0th to 10th day, then Compound 1 1 mg/kg orally once a day 11th to 24th day, FIG. 1): the progress of the arthritis was inhibited | infiltration of inflammatory cells into the joint after switching from MTX (injected leg, pathological specimen, observed 25th day, FIG. 3E): any infiltration of inflammatory cells into the joint was suppressed | onset of the arthritis after switching from MTX (non-injected leg, MTX 0.1 mg/kg 0th to 10th day, then Compound 1 1 mg/kg orally once a day 11th to 24th day, FIG. 2): the onset of the arthritis was suppressed | infiltration of inflammatory cells into the joint after switching from MTX (non-injected legs, pathological specimen): any infiltration of inflammatory cells into the joint was found to be suppressed | overall effect on the arthritis (summary): could maintain the MTX-suppressed condition of the symptom of the arthritis

CN(Cc1cnc2nc(N)nc(N)c2n1)c1ccc(C(=O)N[C@@H](CCC(=O)O)C(=O)O)cc1 [MTX, Methotrexate]
symptom of arthritis after stopping administration (adjuvant-injected leg, MTX 0th to 10th day, discontinued on and after 11th day, FIG. 1): the symptom of arthritis was again advanced | increase in the volume of the leg [1]: there was not observed any increase in the volume of the leg | progress of the arthritis [1]: the progress of the arthritis was found to be inhibited | infiltration of inflammatory cells into the joint (injected leg, pathological specimen (hematoxylin eosin), MTX 0th to 10th day, observed 11th day, FIG. 3B): any infiltration of inflammatory cells into the joint was suppressed | infiltration of inflammatory cells into the joint after stopping administration (injected leg, pathological specimen, MTX 0th to 10th day then stopped, observed 25th day, FIG. 3D): the conspicuous infiltration of inflammatory cells into the joint was recognized | arthritis after stopping administration (non-injected leg, MTX 0th to 10th day, discontinued on and after 11th day, FIG. 2): the arthritis was initiated when stopping the administration of MTX | onset of the arthritis (non-injected leg, MTX 0.1 mg/kg orally 0th to 10th day, at the 11th day, FIG. 2): the onset of the arthritis in the non-injected leg was suppressed | overall effect on the arthritis (summary): could suppress the onset and progress of arthritis, but the arthritis was immediately advanced when stopping the administration thereof
